From ChEMBL document CHEMBL3045530, “Synthesis, antimycobacterial, antiviral, antimicrobial activities, and QSAR studies of isonicotinic acid-1-(substituted phenyl)-ethylidene/cycloheptylidene hydrazides” (Med Chem Res, 2012)
Converted amounts (≈) assume the structure as drawn.

Columns and labels:
[1] = Cytotoxicity against Homo sapiens (human) MT4 cells after 4 days by MTT assay; type: cell-based
Aspergillus niger = assay: Antimicrobial activity against Aspergillus niger after 7 days by tube dilution method; type: functional
Punta Toro virus = assay: Antiviral activity against Punta Toro virus infected Vero cells assessed as inhibition of virus-induced cytopathicity; type: functional, organism-based
Human alphaherpesvirus 2 = assay: Antiviral activity against Human herpesvirus 2 strain G infected human HEL cells assessed as inhibition of virus-induced cytopathicity by microscopy; type: functional, organism-based; conditions: Human alphaherpesvirus 2, strain G
[2] = test system: Human herpesvirus 3 strain Oka vaccine; assay: Antiviral activity against Human herpesvirus 3 strain Oka vaccine OKA 07-1 (Varicella zoster virus ) infected in human HEL cells assessed as inhibition of virus-induced cytopathicity; type: functional, organism-based; conditions: Human alphaherpesvirus 3, HEL
Human alphaherpesvirus 1 [3] = assay: Antiviral activity against Human herpesvirus 1 strain KOS infected human HEL cells assessed as inhibition of virus-induced cytopathicity by microscopy by microscopy; type: functional, organism-based; conditions: Human alphaherpesvirus 1, KOS
Staphylococcus aureus = assay: Antimicrobial activity against Staphylococcus aureus after 24 hr by tube dilution method; type: functional
Bacillus subtilis = assay: Antimicrobial activity against Bacillus subtilis after 24 hr by tube dilution method; type: functional
Coxsackievirus B4 [4] = assay: Antiviral activity against Human coxsackievirus B4 infected human HeLa cells assessed as inhibition of virus-induced cytopathicity by microscopy; type: functional, organism-based; conditions: Enterovirus B
[5] = test system: Human immunodeficiency virus 2; assay: Antiviral activity against Human immunodeficiency virus type 2 (ISOLATE ROD) infected MT4 cells assessed as inhibition of virus-induced cytopathic effect after 4 days by MTT assay; type: functional, organism-based; conditions: Human immunodeficiency virus 2, ISOLATE ROD, MT4, 96 h
[6] = Cytotoxicity against Homo sapiens (human) HeLa cells assessed as alteration in cell morphology by microscopy; type: cell-based; conditions: read-out: MTC
Candida albicans = assay: Antimicrobial activity against Candida albicans after 48 hr by tube dilution method; type: functional
Human alphaherpesvirus 1 [7] = assay: Antiviral activity against TK(-) aciclovir-resistant Human herpesvirus 1 strain KOS infected in human HEL cells assessed as inhibition of virus-induced cytopathicity; type: functional, organism-based; conditions: Human alphaherpesvirus 1, KOS
[8] = test system: Mammalian orthoreovirus 1; assay: Antiviral activity against Mammalian orthoreovirus 1 infected Vero cells assessed as inhibition of virus-induced cytopathicity by microscopy; type: functional, organism-based; conditions: Mammalian orthoreovirus 1, Vero
Vaccinia virus = assay: Antiviral activity against Vaccinia virus infected human HEL cells assessed as inhibition of virus-induced cytopathicity by microscopy; type: functional, organism-based; conditions: Orthopoxvirus vaccinia
Human respirovirus 3 = assay: Antiviral activity against Human parainfluenza virus 3 infected Vero cells assessed as inhibition of virus-induced cytopathicity by microscopy; type: functional, organism-based; conditions: Human respirovirus 3, Vero
HEL = assay: Cytostatic against Homo sapiens (human) HEL cells assessed as alteration in cell morphology by microscopy; type: ADME, cell-based
[9] = test system: Human herpesvirus 5 strain AD169; assay: Antiviral activity against Human herpesvirus 5 strain AD169 Davis infected human HEL cells assessed as inhibition of virus-induced cytopathicity by microscopy; type: functional, organism-based; conditions: Human betaherpesvirus 5, Davis
[10] = test system: Human immunodeficiency virus 1; assay: Antiviral activity against Human immunodeficiency virus 1 IIIB infected MT4 cells assessed as inhibition of virus-induced cytopathic effect after 4 days by MTT assay; type: functional, organism-based; conditions: MT4, 96 h
[11] = test system: Vesicular stomatitis virus; assay: Antiviral activity against Vesicular stomatitis virus infected human HeLa cells assessed as inhibition of virus-induced cytopathicity by microscopy; type: functional, organism-based
Coxsackievirus B4 [12] = assay: Antiviral activity against Human coxsackievirus B4 infected Vero cells assessed as inhibition of virus-induced cytopathicity; type: functional, organism-based; conditions: Enterovirus B
[13] = Cytotoxicity against Homo sapiens (human) HEL cells assessed as alteration in cell morphology by microscopy; type: cell-based; conditions: for MCC: read-out: MTC
[14] = test system: Respiratory syncytial virus; assay: Antiviral activity against Respiratory syncytial virus infected human HeLa cells assessed as inhibition of virus-induced cytopathicity by microscopy; type: functional, organism-based
[15] = Cytotoxicity against Chlorocebus aethiops (African green monkey) Vero cells assessed as alteration in cell morphology by microscopy; type: cell-based; conditions: chlorocebus sabaeus, read-out: MTC
Escherichia coli = assay: Antimicrobial activity against Escherichia coli after 24 hr by tube dilution method; type: functional
Sindbis virus = assay: Antiviral activity against Sindbis virus infected Vero cells assessed as inhibition of virus-induced cytopathicity; type: functional, organism-based

Structure (SMILES) | CC50 at 96 h [1] | -logMIC (Aspergillus niger) | EC50 (Punta Toro virus) | EC50 (Human alphaherpesvirus 2) | EC50 [2] | EC50 (Human alphaherpesvirus 1 [3]) | -logMIC (Staphylococcus aureus) | -logMIC (Bacillus subtilis) | EC50 (Coxsackievirus B4 [4]) | EC50 [5] | MCC [6] | -logMIC (Candida albicans) | EC50 (Human alphaherpesvirus 1 [7]) | EC50 [8] | EC50 (Vaccinia virus) | EC50 (Human respirovirus 3) | Activity (HEL) | EC50 [9] | EC50 [10] | EC50 [11] | further results
C/C(=N\NC(=O)c1ccncc1)c1ccc(Cl)cc1 | 88 µg/mL (≈ 321 µM) | 2.34 | > 20 µg/mL | > 20 µg/mL | > 20 µg/mL | > 20 µg/mL | 2.34 | 2.04 | > 20 µg/mL | > 88 µg/mL | 100 µg/mL | 2.34 | > 20 µg/mL | > 20 µg/mL | > 20 µg/mL | > 20 µg/mL | Toxic | > 20 µg/mL | > 88 µg/mL | > 20 µg/mL | EC50 (Coxsackievirus B4 [12]): > 20 µg/mL; CC50 [13]: 20 µg/mL (≈ 73.1 µM); MCC [13]: 100 µg/mL; EC50 [14]: > 20 µg/mL; MCC [15]: 100 µg/mL; -logMIC (Escherichia coli): 2.34; EC50 (Sindbis virus): > 20 µg/mL
O=C(NN=C1CCCCCC1)c1ccncc1 [N'-CYCLOHEPTYLIDENEISONICOTINOHYDRAZIDE] | 86 µg/mL (≈ 372 µM) | 1.66 | > 100 µg/mL | > 100 µg/mL | > 100 µg/mL | > 100 µg/mL | 1.66 | 1.66 | > 100 µg/mL | > 86 µg/mL | > 100 µg/mL | 1.66 | > 100 µg/mL | > 100 µg/mL | > 100 µg/mL | > 100 µg/mL | Toxic | > 100 µg/mL | > 86 µg/mL | > 100 µg/mL | EC50 (Coxsackievirus B4 [12]): > 100 µg/mL; CC50 [13]: > 100 µg/mL; MCC [13]: > 100 µg/mL; EC50 [14]: > 100 µg/mL; MCC [15]: > 100 µg/mL; -logMIC (Escherichia coli): 1.36; EC50 (Sindbis virus): > 100 µg/mL
